The source made the active and inactive calls. No cut-off for these calls is given here.
How the values were obtained:
[1] = biological target: Neuronal acetylcholine receptor; alpha4/beta2 (Homo sapiens, UniProt P17787+P43681); assay: Agonist activity at […] in IMR-32cells assessed as calcium influx by FLIPR assay; type: functional
[2] = biological target: Neuronal acetylcholine receptor; alpha4/beta2 (Rattus norvegicus, UniProt P09483+P12390); assay: Displacement of [3H]cytisine from alpha-4-beta-2 in rat cerebral cortical membrane; type: cell membranes
Striatum = assay: Agonist activity at rat striatal tissue assessed as dopamine release; type: functional
[3] = Drug level in Sprague-Dawley rat brain at 6.2 umol/kg, ip after 15 mins; type: ADME, organism-based; conditions: read-out: Drug uptake
[4] = Drug level in Sprague-Dawley rat plasma at 6.2 umol/kg, ip after 60 mins; type: ADME, organism-based
Rattus norvegicus [5] = assay: Effect on reversal of allodynia in rat chug model at 19 umol/kg, ip; type: functional, organism-based
[6] = Drug level in Sprague-Dawley rat plasma at 6.2 umol/kg, ip after 30 mins; type: ADME, organism-based
[7] = Drug levels in Sprague-Dawley rat plasma at 6.2 umol/kg, ip after 15 mins; type: ADME, organism-based
Rattus norvegicus [8] = assay: Antinociceptive effect in rat assessed as reduction of flinches up to 6.2 umol/kg, ip; type: functional, organism-based
[9] = Drug level in Sprague-Dawley rat at 6.2 umol/kg, ip after 60 mins; type: ADME, organism-based; conditions: brain, read-out: Drug uptake
[10] = Drug level in Sprague-Dawley rat brain at 6.2 umol/kg, ip after 30 mins; type: ADME, organism-based; conditions: read-out: Drug uptake
Rattus norvegicus [11] = assay: Antinociceptive effect on rat assessed as increased latency to paw withdrawal in response to noxious thermal stimulus at 0.62 umol/kg, ip; type: functional, organism-based
Rattus norvegicus [12] = species on record: Rattus norvegicus; assay: Reversal of mechanically-stimulated hyperalgesia in spinal nerve ligated rat chung model; type: functional, organism-based
Mus musculus [13] = assay: Effect on urination in mouse at 6.2 umol/kg, ip; type: functional, organism-based
Rattus norvegicus [14] = assay: Antinociceptive effect on rat assessed as reduction of flinches up to 1.9 umol/kg, ip; type: functional, organism-based
Mus musculus [15] = assay: Effect on hypolocomotion in mouse at 6.2 umol/kg, ip; type: functional, organism-based
Mus musculus [16] = assay: Effect on head weaving in mouse at 6.2 umol/kg, ip; type: functional, organism-based
Mus musculus [17] = assay: Induction of seizure in mouse at 62 umol/kg, ip; type: functional, organism-based
[18] = Rattus norvegicus, Striatum, read-out: EC50
[19] = Rattus norvegicus, Striatum, read-out: Log EC50 (converted)

Neuronal acetylcholine receptor; alpha4/beta2 (Rattus norvegicus, UniProt P09483+P12390), sequence (P09483 whole entry): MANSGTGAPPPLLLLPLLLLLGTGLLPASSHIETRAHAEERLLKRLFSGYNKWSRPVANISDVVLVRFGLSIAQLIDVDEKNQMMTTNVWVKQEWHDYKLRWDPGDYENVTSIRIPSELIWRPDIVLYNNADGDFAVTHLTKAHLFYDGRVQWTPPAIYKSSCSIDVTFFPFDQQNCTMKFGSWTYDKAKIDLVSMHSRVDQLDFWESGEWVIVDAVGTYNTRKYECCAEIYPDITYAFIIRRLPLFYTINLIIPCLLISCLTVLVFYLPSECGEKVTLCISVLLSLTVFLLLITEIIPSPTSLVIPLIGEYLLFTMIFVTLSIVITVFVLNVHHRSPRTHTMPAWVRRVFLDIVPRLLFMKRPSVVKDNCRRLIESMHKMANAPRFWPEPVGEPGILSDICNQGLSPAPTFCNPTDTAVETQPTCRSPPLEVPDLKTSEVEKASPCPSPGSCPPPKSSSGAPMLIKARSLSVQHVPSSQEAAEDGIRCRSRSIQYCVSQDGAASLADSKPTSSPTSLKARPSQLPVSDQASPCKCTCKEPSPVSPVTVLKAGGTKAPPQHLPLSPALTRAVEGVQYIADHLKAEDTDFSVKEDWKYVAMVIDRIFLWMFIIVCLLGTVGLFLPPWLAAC
Neuronal acetylcholine receptor; alpha4/beta2 (Rattus norvegicus, UniProt P09483+P12390), sequence (P12390 whole entry): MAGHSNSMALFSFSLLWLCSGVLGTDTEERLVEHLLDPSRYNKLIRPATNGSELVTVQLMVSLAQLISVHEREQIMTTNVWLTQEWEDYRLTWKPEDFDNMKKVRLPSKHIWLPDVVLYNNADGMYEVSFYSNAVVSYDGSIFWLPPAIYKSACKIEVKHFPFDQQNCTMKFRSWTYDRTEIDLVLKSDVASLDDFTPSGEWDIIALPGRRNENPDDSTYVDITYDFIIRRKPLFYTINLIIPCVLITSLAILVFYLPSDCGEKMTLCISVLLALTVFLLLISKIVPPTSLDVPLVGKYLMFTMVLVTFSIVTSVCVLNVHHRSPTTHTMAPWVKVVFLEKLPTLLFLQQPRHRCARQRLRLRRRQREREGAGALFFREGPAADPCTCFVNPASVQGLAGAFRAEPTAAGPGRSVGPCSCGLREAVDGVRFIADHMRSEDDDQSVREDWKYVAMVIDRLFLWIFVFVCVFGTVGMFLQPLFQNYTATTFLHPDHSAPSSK
Neuronal acetylcholine receptor; alpha4/beta2 (Homo sapiens, UniProt P17787+P43681), sequence (P17787 whole entry): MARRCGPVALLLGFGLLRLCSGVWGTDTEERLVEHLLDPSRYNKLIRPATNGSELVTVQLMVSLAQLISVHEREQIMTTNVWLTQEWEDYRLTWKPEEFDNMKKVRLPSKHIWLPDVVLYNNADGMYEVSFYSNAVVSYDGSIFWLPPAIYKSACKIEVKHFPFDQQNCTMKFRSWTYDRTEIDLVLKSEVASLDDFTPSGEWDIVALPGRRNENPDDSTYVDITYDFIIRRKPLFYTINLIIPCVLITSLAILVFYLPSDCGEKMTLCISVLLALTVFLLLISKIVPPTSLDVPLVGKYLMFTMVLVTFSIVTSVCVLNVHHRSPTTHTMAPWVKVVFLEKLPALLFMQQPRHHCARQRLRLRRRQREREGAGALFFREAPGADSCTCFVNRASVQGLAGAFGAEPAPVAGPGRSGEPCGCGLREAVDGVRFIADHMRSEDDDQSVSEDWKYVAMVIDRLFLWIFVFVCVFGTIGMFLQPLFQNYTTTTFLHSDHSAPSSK
Neuronal acetylcholine receptor; alpha4/beta2 (Homo sapiens, UniProt P17787+P43681), sequence (P43681 whole entry): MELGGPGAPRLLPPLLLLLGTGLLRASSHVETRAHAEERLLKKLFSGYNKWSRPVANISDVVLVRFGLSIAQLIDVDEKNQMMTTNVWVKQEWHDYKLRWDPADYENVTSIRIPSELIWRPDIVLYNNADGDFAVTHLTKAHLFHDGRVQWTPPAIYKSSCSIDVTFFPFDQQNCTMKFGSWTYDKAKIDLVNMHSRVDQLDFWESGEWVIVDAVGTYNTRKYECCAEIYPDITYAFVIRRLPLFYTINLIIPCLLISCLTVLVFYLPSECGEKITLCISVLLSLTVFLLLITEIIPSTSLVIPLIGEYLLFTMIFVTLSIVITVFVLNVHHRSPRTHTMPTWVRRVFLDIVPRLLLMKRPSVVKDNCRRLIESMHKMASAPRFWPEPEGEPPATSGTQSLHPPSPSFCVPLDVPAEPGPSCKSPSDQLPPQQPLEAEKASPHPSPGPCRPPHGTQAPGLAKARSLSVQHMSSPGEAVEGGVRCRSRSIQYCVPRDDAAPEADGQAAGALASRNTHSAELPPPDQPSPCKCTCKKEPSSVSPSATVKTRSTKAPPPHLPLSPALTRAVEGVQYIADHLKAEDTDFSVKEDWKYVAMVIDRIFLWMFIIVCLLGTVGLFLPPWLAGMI

Row | Structure (SMILES) | EC50 ([1]; read-out: EC50) | Ki ([2]; read-out: Ki) | also measured
1 | Oc1cncc(N2C[C@H]3C[C@@H]2CN3)c1 | 2600 nM | 0.035 nM | Log EC50 (Striatum): -8.24; EC50 (Striatum; read-out: EC50): 5.7 nM
2 | N#Cc1cncc(N2C[C@H]3C[C@@H]2CN3)c1 | 980 nM | 0.027 nM | Log EC50 (Striatum): -9.1; EC50 (Striatum; read-out: EC50): 0.8 nM
3 | Clc1ccc(N2C[C@@H]3C[C@H]2CN3)cc1 | – | 22 nM | –
4 | CN1C[C@@H]2C[C@H]1CN2c1ccc(Cl)nc1 | – | 1.3 nM | –
5 | c1cncc(N2CC3CNCC2C3)c1 (stereo not drawn) | 1600 nM | 0.065 nM | –
6 | N#Cc1cncc(N2C[C@@H]3C[C@H]2CN3)c1 | 24000 nM | 1.7 nM | Ki ([2]; read-out: Log Ki (converted)): 1.62 nM; Log EC50 (Striatum): -7.64; EC50 (Striatum; read-out: EC50): 23 nM
7 | Clc1nnc(N2C[C@@H]3C[C@H]2CN3)c2ccccc12 | – | 1900 nM | –
8 | COc1ccc(N2C[C@H]3C[C@@H]2CN3)cn1 | 850 nM | 0.25 nM | –
9 | Clc1ccc(N2C[C@H]3C[C@@H]2CN3)cn1 | 140 nM | 0.018 nM | Log EC50 (Striatum): -8.6; EC50 (Striatum; read-out: EC50): 2.5 nM
10 | c1ccc2ncc(N3C[C@@H]4C[C@H]3CN4)cc2c1 | – | 17 nM | –
11 | Clc1cc(N2CC3CC2CN3)ncn1 (stereo not drawn) | – | 52 nM | –
12 | Cc1cc(N2C[C@@H]3C[C@H]2CN3)nnc1Cl | – | 3.8 nM | –
13 | Cc1cc(N2C[C@@H]3C[C@H]2CN3)sn1 | – | 4.9 nM | –
14 | Oc1cc(N2C[C@@H]3C[C@H]2CN3)cnc1Cl | 35000 nM | 1.6 nM | Log EC50 (Striatum): -7.3; EC50 (Striatum; read-out: EC50): 51 nM
15 | NCc1cncc(N2C[C@@H]3C[C@H]2CN3)c1 | 20000 nM | 140 nM | –
16 | COc1cncc(N2C[C@H]3C[C@@H]2CN3)c1 | 5700 nM | 0.12 nM | Log EC50 (Striatum): -7.7; EC50 (Striatum; read-out: EC50): 20 nM
17 | O=[N+]([O-])c1ccc(N2C[C@@H]3C[C@H]2CN3)cc1 | – | 67 nM | –
18 | O=[N+]([O-])c1cccc(N2C[C@@H]3C[C@H]2CN3)c1 | – | 600 nM | –
19 | C[N+]1(C)CC2CC1CN2c1ccc(Cl)nc1 (stereo not drawn) | 1500 nM | 0.2 nM | –

Row | Structure (SMILES) | EC50 ([1]; read-out: EC50) | Ki ([2]; read-out: Ki) | also measured
20 | Nc1ccc(N2CC3CC2CN3)cn1 (stereo not drawn) | 31000 nM | 20 nM | –
21 | c1cnc2cc(N3C[C@H]4C[C@@H]3CN4)sc2c1 | – | 0.83 nM | –
22 | Fc1cccc(N2C[C@@H]3C[C@H]2CN3)c1 | – | 250 nM | –
23 | Fc1ccc(N2C[C@@H]3C[C@H]2CN3)cn1 | 3700 nM | 0.17 nM | Ki ([2]; read-out: Log Ki (converted)): 0.141 nM; Log EC50 (Striatum): -7.72; EC50 (Striatum; read-out: EC50): 19 nM
24 | CN1CCC[C@H]1c1cccnc1 [NICOTINE] | – | – | EC50 (Striatum; [18]): 200 nM; EC50 (Striatum; [19]): 200 nM
25 | c1csc(N2C[C@@H]3C[C@H]2CN3)n1 | – | 2300 nM | –
26 | O=[N+]([O-])c1ccc(N2C[C@@H]3C[C@H]2CN3)cn1 | 11000 nM | 110 nM | –
27 | c1cnnc(N2C[C@@H]3C[C@H]2CN3)c1 | – | 120 nM | –
28 | Clc1ccc(N2CC3CC2CCN3)cn1 (stereo not drawn) | 7440 nM | 2.8 nM | –
29 | COc1cncc(N2C[C@@H]3C[C@H]2CN3)c1 | 30000 nM | 0.53 nM | Log EC50 (Striatum): -7.09; EC50 (Striatum; read-out: EC50): 81 nM
30 | FC(F)(F)c1cncc(N2C[C@H]3C[C@@H]2CN3)c1 | – | 490 nM | –
31 | O=C(c1ccc(Cl)nc1)N1C[C@H]2C[C@@H]1CN2 | – | 590 nM | –
32 | c1cncc(N2CC3CCC2CN3)c1 (stereo not drawn) | 280 nM | 0.02 nM | –
33 | COc1cc(N2C[C@H]3C[C@@H]2CN3)cnc1Cl | 4300 nM | 0.1 nM | –
34 | Clc1cc(N2C[C@H]3C[C@@H]2CN3)cnc1Cl | 550 nM | 0.018 nM | EC50 (Striatum; [18]): 16 nM; EC50 (Striatum; [19]): 16.2 nM
35 | Fc1ccc(N2C[C@H]3C[C@@H]2CN3)cn1 | 160 nM | 0.028 nM | EC50 ([1]; read-out: Log EC50 (converted)): 1.62 nM; Log EC50 (Striatum): -6.7; EC50 (Striatum; read-out: EC50): 1.6 nM
36 | NC(=O)c1cncc(N2C[C@H]3C[C@@H]2CN3)c1 | 28000 nM | 0.83 nM | EC50 (Striatum; [18]): 30 nM; EC50 (Striatum; [19]): 30.2 nM
37 | c1ccc(N2C[C@@H]3C[C@H]2CN3)cc1 | – | 1000 nM | –
38 | c1ccc(N2C[C@@H]3C[C@H]2CN3)nc1 | – | 980 nM | –

Row | Structure (SMILES) | EC50 ([1]; read-out: EC50) | Ki ([2]; read-out: Ki) | also measured
39 | c1cncc(N2CC3CNC(C3)C2)c1 (stereo not drawn) | 72 nM | 0.047 nM | –
40 | NC(=O)c1cncc(N2C[C@@H]3C[C@H]2CN3)c1 | 25000 nM | 24 nM | –
41 | c1cncc(N2C[C@H]3C[C@@H]2CN3)c1 | 370 nM | 0.018 nM | –
42 | O=S(=O)(c1cnc(Cl)c(Br)c1)N1C[C@H]2C[C@@H]1CN2 | – | 17 nM | –
43 | O=C1C2CC(CN2)N1c1ccc(Cl)nc1 (stereo not drawn) | – | > 10000 nM | Ki ([2]; read-out: Log Ki (converted)): > 100000 nM
44 | Cc1cc(N2C[C@H]3C[C@@H]2CN3)cnc1Cl | 180 nM | 0.014 nM | –
45 | Cc1nsc(N2C[C@H]3C[C@@H]2CN3)n1 | – | 350 nM | –
46 | Cc1ccc(N2C[C@@H]3C[C@H]2CN3)cn1 | 1700 nM | 1.6 nM | EC50 (Striatum; [18]): 350 nM; EC50 (Striatum; [19]): 347 nM
47 | c1ncc(N2C[C@@H]3C[C@H]2CN3)cn1 | – | 0.95 nM | –
48 | c1cncc(N2C[C@@H]3C[C@H]2CN3)c1 | 6400 nM | 0.15 nM | EC50 (Striatum; [18]): 138 nM; EC50 (Striatum; [19]): 138 nM
49 | c1cncc(CN2C[C@H]3C[C@@H]2CN3)c1 | – | 56 nM | –
50 | c1ccc2nc(N3C[C@@H]4C[C@H]3CN4)ccc2c1 | – | 4000 nM | –
51 | Oc1cc(N2C[C@H]3C[C@@H]2CN3)cnc1Cl | 3200 nM | 0.17 nM | concentration at 0.25 h [3]: 29 ng/g; concentration at 1 h [4]: 131 ng/mL; Activity (Rattus norvegicus [5]): inactive; concentration at 0.5 h [6]: 289 ng/mL; concentration at 0.25 h [7]: 458 ng/mL; Log EC50 (Striatum): -8.42; EC50 (Striatum; read-out: EC50): 3.8 nM; Activity (Rattus norvegicus [8]): Active; concentration at 1 h [9]: 10 ng/g; concentration at 0.5 h [10]: 22 ng/g
52 | Clc1ccc(C2CC3CCC2N3)cn1 (stereo not drawn) [EPIBATIDINE] | – | – | EC50 (Striatum; [18]): 0.83 nM; EC50 (Striatum; [19]): 0.832 nM
53 | Oc1cncc(N2C[C@@H]3C[C@H]2CN3)c1 | > 100000 nM | 4 nM | Log EC50 (Striatum): -7.6; EC50 (Striatum; read-out: EC50): 28 nM
54 | Clc1ccc(N2C[C@@H]3C[C@H]2CN3)cn1 | 450 nM | 0.1 nM | Activity (Rattus norvegicus [11]): Active; Activity (Rattus norvegicus [12]): Active; Activity (Mus musculus [13]): Active; Activity (Rattus norvegicus [14]): Active; Activity (Mus musculus [15]): Active; Log EC50 (Striatum): -8.28; EC50 (Striatum; read-out: EC50): 5.3 nM; Activity (Mus musculus [16]): Active; Activity (Mus musculus [17]): Active
55 | CCN1C[C@@H]2C[C@H]1CN2c1ccc(Cl)nc1 | – | 34 nM | –
56 | c1cnc2c(N3C[C@H]4C[C@@H]3CN4)csc2c1 | – | 280 nM | –
